The text below walks through data of patent US20260001928A1 (CORTERIA PHARMACEUTICALS, priority 2022, published 2026).

Molecules are shown by their SMILES. *1 amine or outer side, *2 acyl side, *3 side chain or, on linkers, in order; H or OH if unused. Where a SMILES comes first, the peptide text is derived from it. Side-chain parts run from the residue outwards. [ ]: non-standard residue; d: D form. The star is where a group is joined. C20 diacid = O=C(O)CCCCCCCCCCCCCCCCCCC(=O)*; γGlu = O=C(O)[C@H](CCC(=O)[*:2])N[*:1]; NMeI = CC[C@H](C)[C@H](NC)C(=O)O; AEEA = NCCOCCOCC(=O)O; Aib = CC(C)(N)C(=O)O

For one data set, the target named is T1, human CRF2a receptor (Homo sapiens, UniProt Q13324).
T1 construct: expressed in transfected cells; host or cells: TeloHEAC cells
T1 sequence (Q13324 1-411): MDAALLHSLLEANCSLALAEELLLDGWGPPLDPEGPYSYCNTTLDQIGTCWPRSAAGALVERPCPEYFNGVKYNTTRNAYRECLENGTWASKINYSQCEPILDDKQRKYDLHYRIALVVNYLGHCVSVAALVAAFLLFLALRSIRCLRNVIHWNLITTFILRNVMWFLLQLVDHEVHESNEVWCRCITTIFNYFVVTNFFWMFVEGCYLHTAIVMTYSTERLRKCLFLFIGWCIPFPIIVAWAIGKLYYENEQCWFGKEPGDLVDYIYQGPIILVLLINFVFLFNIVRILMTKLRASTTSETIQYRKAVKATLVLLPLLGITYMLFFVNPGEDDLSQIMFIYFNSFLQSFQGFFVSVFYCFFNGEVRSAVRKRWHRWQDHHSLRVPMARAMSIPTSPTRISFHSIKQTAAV
The data set can be described thus: Activity at human CRF2a receptor, cAMP functional assay in TeloHEAC cells. In kind it is cell-based. The following applies: TeloHEAC cells stably expressing human CRF2a receptor, relative to urocortin 2 (100 nM = 100%). In a few lines:
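TeloHEAC cells stably expressing human CRF2a (10000 cells/well) were treated with 16-point 1:2 compound dilutions in HBSS/20 mM HEPES with IBMX for 30 min at 37° C. cAMP was read by HTRF (665/620 nm ratio). EC50 was the concentration giving 50% activation, with 100 nM urocortin 2 set as 100%.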

The next data set concerns the target T2, CFR1R receptor (Homo sapiens, UniProt P34998).
T2 construct: host or cells: CHO-K1 (clone 2)
T2 sequence (P34998 24-415): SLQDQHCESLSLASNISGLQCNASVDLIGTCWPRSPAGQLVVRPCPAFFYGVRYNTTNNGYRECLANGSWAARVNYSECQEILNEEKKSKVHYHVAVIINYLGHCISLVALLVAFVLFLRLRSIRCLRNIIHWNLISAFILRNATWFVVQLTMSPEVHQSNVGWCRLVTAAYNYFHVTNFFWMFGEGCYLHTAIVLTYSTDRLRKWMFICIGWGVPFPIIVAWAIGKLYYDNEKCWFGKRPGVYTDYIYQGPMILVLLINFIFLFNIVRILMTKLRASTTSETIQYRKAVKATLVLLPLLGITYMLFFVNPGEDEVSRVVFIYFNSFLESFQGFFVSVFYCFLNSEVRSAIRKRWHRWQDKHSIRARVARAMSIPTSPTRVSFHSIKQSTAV
Kind of data set: Activity at anti-target CFR1R receptor, cAMP assay in CRF1R-overexpression CHO-K1 cells. In kind it is cell-based. The note with it: 100% = Sauvagine at 100 nM; for EC50: cAMP. In a few lines:
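Signal is normalised to 100 nM Sauvagine, taken as 100% activation, in clone 2 cells plated at a final 4000 cells/well from frozen stocks.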
Background: cAMP levels reflect the balance of adenylyl cyclase and phosphodiesterase activity.

The target in another data set is T3, rat CRF2 a (Rattus norvegicus, UniProt P47866).
T3 construct: host or cells: A7R5 rat aortic smooth muscle cells
The data set can be described thus: Activity at rat CRF2 a, cAMP assay in A7R5 rat aortic smooth muscle cells. The class given is cell-based. The note with it: 0% HSA, 100% = Sauvagine at 100 nM. The protocol: The A7R5 rat aortic smooth muscle cell line used in this study was purchased from ATCC.
Cells were grown in a 10 cm dish at 37° C./5% CO2 in medium (DMEM/10% FBS) to near confluence. At that stage, cells were harvested, resuspended to 10 million/mL in culture medium and with 5% DMSO. 1 mL vial aliquots were slowly frozen to −80° C. in isopropanol and then transferred in liquid nitrogen for storage.
These vials were used to run the experiment following the procedure reported in the previous paragraph, except for the compound used in the control well to define the 100% activation (Sauvagine at 100 nM) and the cell density (final cell density: 5000 cells/well).

Data set [1] is described as follows: In vitro subcutaneous tissue supernatant (SCts) stability and metabolite identification, rat. In kind it is in vitro ADME. On the set-up: remaining at 2 h: dose or concentration left out as unconfirmed. The note with it: male, Sprague Dawley; rat subcutaneous tissue supernatant (SCts), 37° C, 2 h.
Data set [2] is described as follows: Chemical stability in buffer (pH 7.4 / pH 4.5), % purity loss. The class given is physicochemical. The following applies: 40° C. vs 5° C., 14 or 28 days; for Buffer stability pH 7.4 % purity loss: 100 mM phosphate buffer pH 7.4. In a few lines: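 Compounds dissolved at 10 mg/mL target in 100 mM phosphate (pH 7.4) or 100 mM acetate (pH 4.5) buffer for 1 h at room temperature, then centrifuged. Diluted supernatant stored at 5 °C or 40 °C for 14 or 28 days; % purity loss by LC-UV.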

Data set [3] in a line: Pharmacokinetics in male Sprague Dawley rats after subcutaneous administration. The following applies: plasma, rat, SC, 0.05 mg/kg. The class given is in vivo.
Assay in data set [4]: as above
In kind it is in vivo. The following applies: plasma, rat, IV.

T3 sequence (P47866 27-431 isoform P47866-2 limits assumed): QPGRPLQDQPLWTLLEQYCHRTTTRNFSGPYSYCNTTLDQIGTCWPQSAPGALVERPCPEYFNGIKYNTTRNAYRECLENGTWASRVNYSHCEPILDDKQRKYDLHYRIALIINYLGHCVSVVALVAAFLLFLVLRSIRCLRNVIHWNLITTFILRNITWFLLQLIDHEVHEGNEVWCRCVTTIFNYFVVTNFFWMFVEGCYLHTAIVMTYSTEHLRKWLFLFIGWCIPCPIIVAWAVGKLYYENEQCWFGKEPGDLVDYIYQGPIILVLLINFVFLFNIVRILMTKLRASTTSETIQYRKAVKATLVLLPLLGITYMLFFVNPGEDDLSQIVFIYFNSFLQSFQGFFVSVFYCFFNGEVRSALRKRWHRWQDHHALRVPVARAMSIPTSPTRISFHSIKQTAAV

In general, EC50 refers to the concentration giving half of the maximal effect. By share remaining is commonly meant the share of the starting amount still present when the sample was taken. Broadly, the AUC(0-t) is the area under the concentration-time curve up to a stated or last time point. In general, Cmax refers to the peak of the concentration-time curve. As a reminder, the Tmax is the time at which the peak concentration occurs. One may read the half-life as how long it takes for the measured level to halve. As for `CC[C@H](C)[C@H](NC)C(=O)N[C@H](C(=O)N[C@@H](CC(C)C)C(=O)N[C@@H](CO)C(=O)N[C@@H](CC(C)C)C(=O)N[C@@H](CC(=O)O)C(=O)N[C@@H](C(=O)N1CCC[C@H]1C(=O)N[C@H](C(=O)N[C@@H](CCCCN)C(=O)N[C@@H](CC(C)C)C(=O)N[C@@H](CCCCNC(=O)CC[C@H](NC(=O)CCCCCCCCCCCCCCCCCCC(=O)O)C(=O)O)C(=O)N[C@@H](CCCCN)C(=O)N[C@H](C(=O)N[C@@H](CC(C)C)C(=O)N[C@@H](CC(C)C)C(=O)N[C@@H](CCC(=O)O)C(=O)N[C@@H](CCC(N)=O)C(=O)N[C@@H](CCC(=O)O)C(=O)N[C@@H](CCCCN)C(=O)N[C@@H](CCC(N)=O)C(=O)N[C@@H](CCCCN)C(=O)N[C@@H](C)C(=O)N[C@@H](CCC(N)=O)C(=O)N[C@@H](CCCNC(=N)N)C(=O)N[C@@H](CCC(=O)O)C(=O)N[C@@H](CCC(N)=O)C(=O)N[C@@H](C)C(=O)N[C@@H](CCC(=O)O)C(=O)N[C@H](C(=O)N[C@@H](CC(N)=O)C(=O)NC(C)(C)C(=O)N[C@@H](CCC(N)=O)C(=O)N[C@H](C(=O)N[C@@H](CC(C)C)C(=O)N[C@@H](C)C(=O)N[C@@H](CCC(N)=O)C(=O)N[C@H](C(N)=O)C(C)C)[C@@H](C)CC)[C@@H](C)O)[C@@H](C)CC)[C@@H](C)CC)C(C)C)C(C)C` [compound 217] (H-[NMeI]VLSLD[dV]PIKLK([γGlu-C20 diacid])KILLEQEKQKAQREQAETN[Aib]QILAQV-NH2), the concentration for a half-maximal effect (EC50) at human CRF2a receptor worked out at 0.09 nM. Also, at CFR1R receptor, the “Emax (% I)” value turned out to be 33 % I and the EC50 is more than 250 nM. At rat CRF2 a, the EC50 amounted to 0.06 nM. In data set [1], the amount remaining at 2 h came out at 76%. Also, the “Buffer stability pH 7.4 % purity loss” value in data set [2] is 1.8/Not Tested %. Moreover, in data set [3], the area under the curve AUC(0-t) was found to be 4040 ng·h/mL, the Cmax was 138 ng/mL, the time to peak (Tmax) was found to be 8 h and the half-life is 12 h. For the same compound, in data set [4] (0.025 mg/kg), the area under the curve AUC(0-t) was 4120 ng·h/mL and the half-life was 8 h.

With `CC[C@H](C)[C@H](NC)C(=O)N[C@H](C(=O)N[C@@H](CC(C)C)C(=O)N[C@@H](CO)C(=O)N[C@@H](CC(C)C)C(=O)N[C@@H](CC(=O)O)C(=O)N[C@@H](C(=O)N1CCC[C@H]1C(=O)N[C@H](C(=O)N[C@@H](CCCCN)C(=O)N[C@@H](CC(C)C)C(=O)N[C@@H](CCCCNC(=O)COCCOCCNC(=O)CC[C@H](NC(=O)CCCCCCCCCCCCCCCCCCC(=O)O)C(=O)O)C(=O)N[C@@H](CCCCN)C(=O)N[C@H](C(=O)N[C@@H](CC(C)C)C(=O)N[C@@H](CC(C)C)C(=O)N[C@@H](CCC(=O)O)C(=O)N[C@@H](CCC(N)=O)C(=O)N[C@@H](CCC(=O)O)C(=O)N[C@@H](CCCCN)C(=O)N[C@@H](CCC(N)=O)C(=O)N[C@@H](CCCCN)C(=O)NC(C)(C)C(=O)N[C@@H](CCC(N)=O)C(=O)N[C@@H](CCCNC(=N)N)C(=O)N[C@@H](CCC(=O)O)C(=O)N[C@@H](CCC(N)=O)C(=O)N[C@@H](C)C(=O)N[C@@H](CCC(=O)O)C(=O)N[C@H](C(=O)N[C@@H](CC(N)=O)C(=O)NC(C)(C)C(=O)N[C@@H](CCC(N)=O)C(=O)N[C@H](C(=O)N[C@@H](CC(C)C)C(=O)N[C@@H](C)C(=O)N[C@@H](CCC(N)=O)C(=O)N[C@H](C(N)=O)C(C)C)[C@@H](C)CC)[C@@H](C)O)[C@@H](C)CC)[C@@H](C)CC)C(C)C)C(C)C` [compound 234] (H-[NMeI]VLSLD[dV]PIKLK([AEEA-γGlu-C20 diacid])KILLEQEKQK[Aib]QREQAETN[Aib]QILAQV-NH2), the half-maximal effective concentration (EC50) on human CRF2a receptor is 0.09 nM. In addition, on CFR1R receptor, the “Emax (% I)” value came to 15 % I and the EC50 is more than 250 nM. Further, the EC50 on rat CRF2 a turned out to be 0.05 nM. Besides, the share remaining at 2 h in data set [1] came out at 68%. Further, the “Buffer stability pH 4.5 % purity loss” value in data set [2] (100 mM acetate buffer pH 4.5) was 0.0%. Further, the “Buffer stability pH 7.4 % purity loss” value in data set [2] is listed as −0.1%. Also, in data set [3], the area under the curve AUC(0-t) came out at 2730 ng·h/mL, the Cmax came to 95 ng/mL, the Tmax was found to be 6 h and the half-life was 7.5 h. In addition, in data set [4] (0.025 mg/kg), the AUC(0-t) was 2700 ng·h/mL and the half-life is 7 h.

`CC[C@H](C)[C@H](NC)C(=O)N[C@H](C(=O)N[C@@H](CC(C)C)C(=O)N[C@@H](CO)C(=O)N[C@@H](CC(C)C)C(=O)N[C@@H](CC(=O)O)C(=O)N[C@@H](C(=O)N1CCC[C@H]1C(=O)N[C@H](C(=O)N[C@@H](CCCCN)C(=O)N[C@@H](CC(C)C)C(=O)N[C@@H](CCCCNC(=O)CC[C@H](NC(=O)CC[C@H](NC(=O)CCCCCCCCCCCCCCCCCCC(=O)O)C(=O)O)C(=O)O)C(=O)N[C@@H](CCCCN)C(=O)N[C@H](C(=O)N[C@@H](CC(C)C)C(=O)N[C@@H](CC(C)C)C(=O)N[C@@H](CCC(=O)O)C(=O)N[C@@H](CCC(N)=O)C(=O)N[C@@H](CCC(=O)O)C(=O)N[C@@H](CCCCN)C(=O)N[C@@H](CCC(N)=O)C(=O)N[C@@H](CCCCN)C(=O)N[C@@H](CCC(=O)O)C(=O)N[C@@H](CCC(N)=O)C(=O)N[C@@H](CCCNC(=N)N)C(=O)N[C@@H](CCC(=O)O)C(=O)N[C@@H](CCC(N)=O)C(=O)N[C@@H](C)C(=O)N[C@@H](CCC(=O)O)C(=O)N[C@H](C(=O)N[C@@H](CC(N)=O)C(=O)NC(C)(C)C(=O)N[C@@H](CCC(N)=O)C(=O)N[C@H](C(=O)N[C@@H](CC(C)C)C(=O)N[C@@H](C)C(=O)N[C@@H](CCC(N)=O)C(=O)N[C@H](C(N)=O)C(C)C)[C@@H](C)CC)[C@@H](C)O)[C@@H](C)CC)[C@@H](C)CC)C(C)C)C(C)C` [compound 242] (H-[NMeI]VLSLD[dV]PIKLK([γGlu-γGlu-C20 diacid])KILLEQEKQKEQREQAETN[Aib]QILAQV-NH2) had a concentration for a half-maximal effect (EC50) on human CRF2a receptor of 0.22 nM. Besides, on CFR1R receptor, the “Emax (% I)” value is 6 % I and the EC50 was more than 250 nM. At rat CRF2 a, this compound had a concentration giving a half-maximal response (EC50) of 0.4 nM. Moreover, the amount remaining at 2 h in data set [1] is 68%. In addition, in data set [2], the “Buffer stability pH 7.4 % purity loss” value is on record as 0.0/Not Tested %. Also, in data set [4] (0.05 mg/kg), the AUC(0-t) was 7970 ng·h/mL and the half-life was 14 h.
